Measured values published in ChEMBL document CHEMBL1201862, “PubChem BioAssay data set” (2004).
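The compound was tested at five concentrations on cells cultured in 96-well plates, with a 48-hour exposure period. Abbreviation: GI50, concentration required for 50% inhibition of growth.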 The source made the active and inactive calls. Cut-off read from the data, not from the text of the source: active = GI50 up to about 1.1 µM and inactive = higher.

Assays:
Experiment in all cases: growth of human tumour cells (NCI), 48 h
[1] = test system: HCC 2998
[2] = test system: SK-MEL-28
[3] = test system: K562
[4] = test system: U-251
[5] = test system: RPMI-8226
[6] = test system: NCI-H460
[7] = test system: SK-MEL-5
[8] = test system: HOP-62
[9] = test system: NCI-H522
[10] = test system: HOP-92
[11] = test system: UACC-257
[12] = test system: OVCAR-8
[13] = test system: KM12
[14] = test system: 786-0
[15] = test system: COLO 205
[16] = test system: SF-295
[17] = test system: NCI/ADR-RES
[18] = test system: DU-145
[19] = test system: HL-60
[20] = test system: SF-268
[21] = test system: SK-MEL-2
[22] = test system: SNB-75
[23] = test system: RXF 393
[24] = test system: SNB-19
[25] = test system: NCI-H23
[26] = test system: MDA-MB-435
[27] = test system: UO-31
[28] = test system: PC-3
[29] = test system: BT-549
[30] = test system: MDA-N
[31] = test system: Malme-3M
[32] = test system: CAKI-1
[33] = test system: SW-620
[34] = test system: MOLT-4
[35] = test system: SN12C
[36] = test system: M14
[37] = test system: A549
[38] = test system: Hs-578T
[39] = test system: HT-29
[40] = test system: UACC-62
[41] = test system: CCRF-CEM
[42] = test system: HCT-116
[43] = test system: SK-OV-3
[44] = test system: A498
[45] = test system: MDA-MB-231
[46] = test system: T47D
[47] = test system: MCF7
[48] = test system: OVCAR-5
[49] = test system: EKVX
[50] = test system: OVCAR-4
[51] = test system: OVCAR-3
[52] = test system: IGROV-1
[53] = test system: LOX IMVI
[54] = test system: TK-10
[55] = test system: HCT-15
[56] = test system: ACHN
[57] = test system: SR
[58] = test system: SF-539
[59] = test system: NCI-H226

Measured: GI50

O=C(/C=C1\N=C(c2ccccc2)N(c2nc3c(Cl)cc(Cl)cc3s2)C1=O)/C=C/c1ccccc1
73.1 µM: [55]
inactive: [1] > 100 µM | [2] > 100 µM | [3] 35 µM | [4] > 100 µM | [5] 63 µM | [6] > 100 µM | [7] 56.4 µM | [8] > 100 µM | [9] 45.1 µM | [10] > 100 µM | [11] > 100 µM | [12] > 100 µM | [13] > 100 µM | [14] > 100 µM | [15] 47.6 µM | [16] > 100 µM | [17] 83.4 µM | [18] > 100 µM | [19] 91 µM | [20] > 100 µM | [21] > 100 µM | [22] 36.5 µM | [23] 63.1 µM | [24] > 100 µM | [25] > 100 µM | [26] 54.3 µM | [27] > 100 µM | [28] 69.3 µM | [29] > 100 µM | [30] 45.8 µM | [31] > 100 µM | [32] > 100 µM | [33] 72.3 µM | [34] 52.1 µM | [35] > 100 µM | [36] > 100 µM | [37] > 100 µM | [38] > 100 µM | [39] > 100 µM | [40] 54.7 µM | [41] 46.7 µM | [42] 97.5 µM | [43] > 100 µM | [44] 67.5 µM | [45] > 100 µM | [46] 24.9 µM | [47] 63 µM | [48] > 100 µM | [49] > 100 µM | [50] > 100 µM | [51] 75.3 µM | [52] > 100 µM | [53] > 100 µM | [54] > 100 µM | [56] > 100 µM

CCC(C)(O)c1cnc(CC(C)C)c(=O)n1O (stereo not given)
38 µM: [55]
active: [48] 0.597 µM
inactive: [1] 40.7 µM | [2] 63.5 µM | [3] 18.5 µM | [4] 47.9 µM | [5] 11.5 µM | [6] 28.1 µM | [7] 88.1 µM | [8] 42.9 µM | [10] 85.9 µM | [11] 97.3 µM | [12] 34 µM | [13] 37.7 µM | [14] 57.7 µM | [15] 54.7 µM | [16] 36.6 µM | [18] > 100 µM | [20] 36.8 µM | [21] 57.3 µM | [22] 31.6 µM | [23] > 100 µM | [24] 55.8 µM | [25] 78.2 µM | [26] 57.7 µM | [27] 40.1 µM | [28] 48.3 µM | [29] > 100 µM | [30] 73.5 µM | [32] 43.8 µM | [33] 37.1 µM | [34] 21.4 µM | [35] 35.1 µM | [37] 43.9 µM | [38] 80.7 µM | [39] 38.5 µM | [40] 68.2 µM | [41] 29.2 µM | [42] 44.9 µM | [43] 87.5 µM | [44] > 100 µM | [45] 43.3 µM | [46] 59.4 µM | [49] 49.4 µM | [50] 74.3 µM | [51] 33.8 µM | [52] 63 µM | [53] 33.8 µM | [57] 17.2 µM | [54] 97.7 µM | [56] 59.7 µM

Cc1cc(O)c2c(c1O)C(=O)C1=C(C2=O)C(=O)C2C(O)C1C1C(O)CC(O)=C3C(=O)c4c(O)cc(C)c(O)c4C(=O)C321 (stereo not given)
active: [3] 0.506 µM | [4] 0.658 µM | [5] 0.164 µM | [11] 0.789 µM | [12] 1.06 µM | [13] 0.697 µM | [15] 0.834 µM | [16] 0.386 µM | [19] 1.1 µM | [22] 1.03 µM | [28] 0.628 µM | [31] 0.982 µM | [37] 0.693 µM | [38] 0.553 µM | [39] 0.555 µM | [40] 1.12 µM | [41] 0.577 µM | [42] 0.541 µM | [59] 0.885 µM
2.04 µM: [55]
inactive: [1] 1.18 µM | [2] 1.55 µM | [6] 1.46 µM | [7] 1.65 µM | [8] 2.48 µM | [14] 1.71 µM | [18] 1.32 µM | [20] 2.28 µM | [21] 1.73 µM | [24] 1.2 µM | [25] 2.73 µM | [26] 1.36 µM | [29] 3.66 µM | [30] 1.44 µM | [32] 1.75 µM | [33] 1.45 µM | [34] 1.52 µM | [35] 2.12 µM | [36] 2.3 µM | [43] 2.24 µM | [44] 1.27 µM | [45] 2.64 µM | [46] 1.24 µM | [58] 1.94 µM | [47] 2.62 µM | [48] 3.62 µM | [49] 1.98 µM | [50] 6.04 µM | [51] 1.3 µM | [52] 2.36 µM | [53] 1.57 µM | [57] 2.36 µM | [54] 3.14 µM | [56] 1.35 µM

c1cc(NNc2cccc(-c3nnn[nH]3)c2)cc(-c2nnn[nH]2)c1
inactive: [2] > 100 µM | [3] > 100 µM | [4] > 100 µM | [5] > 100 µM | [6] > 100 µM | [7] > 100 µM | [8] > 100 µM | [9] > 100 µM | [10] > 100 µM | [11] > 100 µM | [12] > 100 µM | [13] > 100 µM | [14] > 100 µM | [15] > 100 µM | [16] > 100 µM | [17] > 100 µM | [18] > 100 µM | [20] > 100 µM | [21] > 100 µM | [22] > 100 µM | [23] > 100 µM | [24] > 100 µM | [25] > 100 µM | [26] > 100 µM | [27] > 100 µM | [28] > 100 µM | [29] > 100 µM | [30] > 100 µM | [31] > 100 µM | [32] > 100 µM | [33] > 100 µM | [35] > 100 µM | [36] > 100 µM | [37] > 100 µM | [38] > 100 µM | [39] > 100 µM | [40] > 100 µM | [42] > 100 µM | [43] > 100 µM | [44] > 100 µM | [45] > 100 µM | [46] > 100 µM | [58] > 100 µM | [47] > 100 µM | [48] > 100 µM | [49] > 100 µM | [50] > 100 µM | [51] > 100 µM | [52] > 100 µM | [53] > 100 µM | [59] > 100 µM | [54] > 100 µM | [56] > 100 µM
> 100 µM: [55]
